Measurements: patent US10118943B2, “Compounds and methods for inhibiting cell death” (Ramot at Tel-Aviv University Ltd., priority 2012, dated 2018)
“Also recorded” adds a separate entry of the source.

Assays:
[1] = system: rat brain extracts; assay: NAP / D-SAL affinity chromatography with rat brain extracts, mass spectrometry; type: binding; conditions: repeated twice
Description: The affinity chromatography column included SulfoLink® Immobilization Kit for Peptides (44999, Thermo Scientific, Rockford, Ill., USA). Binding of […] was performed according to the manufacturers' instruction. Recombinant protein was loaded (2 mg/mL) on the columns (2 mL) and incubated overnight at 4° C.; the columns were then washed with phosphate-buffered saline until all unbound protein was eluted [as confirmed by protein assay (Bradford; Bio-Rad Laboratories, Mannheim, Germany)]. NAP-binding proteins were eluted in IgG Elution buffer (pH 2.8) (Thermo scientific). […] Sodium dodecyl sulfate-polyacrylamide gel electrophoresis (SDS-PAGE) was then performed followed by western blot analysis in order to detect the protein (R. Zamostiano et al., J Biol Chem 276, 708 (Jan. 5, 2001)).
Affinity chromatography was carried out as above with rat brain extracts as before (34, 36). However, several additional experiments were undertaken and mass spectrometry was employed to identify additional potential NAP-interacting proteins that elute from the affinity column.

[2] = system: PC12 cells; assay: PC12 cell survival assay, zinc toxicity, MTS (Example 1); conditions: for protection against zinc-induced PC12 cell death (MTS) with EB3 silenced: RNA silencing of EB3
Description: PC12 cells (Pheochromocytoma cells) (ATCC, Bethesda, Md., USA) were seeded at 3×10^4 cells/cm^2 on poly-L-Lysine coated plastic tissue culture dishes (Corning, Lowell, Mass., USA) to form an adherent monolayer. Cells were maintained in Dulbecco's modified Eagle's medium (DMEM) supplemented with 10% horse serum (HS), 5% fetal calf serum (FCS), 2 mM glutamine, 100 U/ml penicillin and […] streptomycin (Biological Industries, Beit Haemek, Israel). PC12 differentiation was induced by nerve growth factor (NGF, Sigma) at concentrations of 50 ng/ml by replacing half of the medium every other day until the cells acquired a differentiated morphology. Differentiated cells were defined as bearing two or more neurites with lengths equal to or more than twice the diameter of the cell body (P. Lamoureux et al., The Journal of cell biology 110, 71 (January, 1990)). The cells were incubated in 5% CO2 in a humidified incubator at 37° C. The cells were sub-cultured every 5 days at a 4:1 split ratio by pipetting. The medium was changed every 2 or 3 days after adhesion.
Transfections were performed using Lipofectamine RNAiMAX (Invitrogen). Transfection was carried out according to manufacturer's protocol. For rat MAPRE3 knockdown, PC12 cells or neurons were plated in growth medium without antibiotics at concentration of 10^4 cells/0.32 cm^2 such that they will be 30-50% confluent at the time of transfection. To obtain the highest transfection efficiency and low non-specific effects, siRNA transfection was performed in the following optimized conditions: 50 nM for neurons and 25 nM PC12 of each siRNA construct with 0.2 μl Lipofectamine RNAiMAX (Invitrogen) was added per well of the 96-well plate and scaled up for different 24 or 6-well plates, according to the manufacturer's instructions. The medium was changed one day after transfection. 48 and 72 hours later, cells were harvested to assay for gene knockdown at the RNA and protein levels.
The cells were incubated for 4 hrs at 37° C. 5% CO2. Survival was measured using the MTS assay.
Metabolic activity of cells was measured by the CellTiter 96® Aqueous Non-Radioactive Cell Proliferation kit in accordance with the manufacturer's instructions (Promega). The assay uses a colorimetric method for determining the number of viable cells employing a tetrazolium compound [3-(4,5-dimethylthiazol-2-yl)-5-(3-carboxymethoxyphenyl)-2-(4-sulfophenyl)-2H-tetrazolium, MTS] and an electron-coupling reagent, phenazine methosulfate (PMS). MTS is bio-reduced by cells into a formazan product that is detected at 490 nm. The conversion of MTS into the formazan form is accomplished by dehydrogenase enzymes found in metabolically active cells. Thus, the quantity of formazan product as measured by the amount of 490 nm absorbance is directly proportional to the number of living cells in culture (A. H. Cory, T. C. Owen, J. A. Barltrop, J. G. Cory, Cancer Commun 3, 207 (July, 1991)).

[3] = system: primary cortical neurons; assay: PSD-95 density in primary cortical neuron culture; type: cell-based, rat
Description: Methods: 1. Primary cultures of neurons were prepared as follows. Newborn rats were sacrificed on postnatal day 1. Cerebral cortex tissue was then dissected and dissociated individually from each pup with the Papain Dissociation System (PDS; Worthington Biochemical Corporation) according to the manufacturer's instructions. 2. Cells were fixed with ice cold methanol, blocked with 2% bovine serum albumin (BSA) and 5% normal goat serum in Tris buffered saline containing tween 20 (TBS-T; 20 mM Tris pH 7.5, 136.8 mM NaCl, and 0.05% v/v Tween 20), and incubated with primary antibody followed by the appropriate secondary antibody. 3. Primary antibodies that were used include: monoclonal anti PSD-95 (ab-2723, Abcam), monoclonal anti Tyr-α-tubulin antibody (YL1/2) (VMA1864, Abcys, Paris, France), polyclonal anti Glu-α-tubulin antibody (L4) (AbC0101, Abcys, Paris, France), DyLight 488-labeled secondary goat anti-mouse IgG, DyLight 633-labeled secondary goat anti-rabbit IgG (KPL, Gaithersburg, Md., USA), Cy3-conjugated secondary goat anti-Rat IgG, (Jackson ImmunoResearch). 4. Images were collected with a Leica SP5 confocal laser scanning microscope (Mannheim, Germany) with 63× oil immersion optics, laser lines at 488, 561, 633 nm. Identical confocal laser scanning microscopy (CLSM) parameters (e.g., scanning line, laser light, gain, and offset etc.) were used for control and NAP treated cells.
For instance, a PSD-95 expression assay using primary cortical neuron cultures established from suitable animals may be performed to confirm a compound's activity in promoting cell plasticity. More specifically, primary cultures of neurons are prepared by first taking cerebral cortex tissue from newborn rats on postnatal day 1. The cerebral cortex tissue is then dissected and dissociated individually from each animal. Cells are fixed with ice cold methanol, blocked (e.g., with bovine serum albumin (BSA) and normal goat serum), and incubated with primary antibody (e.g., monoclonal antibody against PSD-95), optionally followed by the appropriate secondary antibody for imaging purposes. Images of primary neuronal cultures are taken and compared between cultures with or without being exposed to a test compound. An increased PSD-95 expression is indicative of the test compound being capable of promoting or protecting cell plasticity, especially neuronal plasticity.
Cerebral cortex tissue from newborn rats was dissected and dissociated individually from each pup with the Papain Dissociation System (PDS), (Worthington Biochemical Corporation) according to the manufacturer's instructions. Cortical neurons were maintained in Neurobasal medium (NB), (Gibco) supplemented with NeuroCult B27-SM1 ([…]), 1% Glutamax (Gibco), and grown on poly-D-lysine-coated cell culture glass cover slips.
Images were collected with a Leica SP5 confocal laser scanning microscope (Mannheim, Germany) with 63× oil immersion optics, laser lines at 488, 561, 633 nm or with LSM 510 META (Zeiss, Jena, Germany) confocal laser scanning microscope with 63× oil immersion optics, laser lines at 488, 568, 633 nm. When comparing fluorescence intensities, identical CLSM parameters (e.g., scanning line, laser light, gain, and offset etc.) were used. All of the fluorescent signals acquired were above the autofluorescent background as measured from a control slide stained with secondary antibody without a primary antibody. To compare the relative levels of protein expression, the average integrated density (AID) image analysis procedure was used for cell immunostains. In brief, integrated density is defined by the sum of the values of the pixels in the selected region of interest (ROI). This is equivalent to the product of Area and Mean Gray Value. AID for the positive stained area was determined by measuring the fluorescent intensity of the ROI, which is above the positive cut-off intensity. […]

[4] = system: PC12 cells; conditions: ZnCl2 400 μM, 4 h
Description: FIG. 15: Rat pheochromocytoma cells (PC12) were seeded on Poly-D-Lysine coated 96-well tissue culture dishes in high concentration (30,000 cells/well). On the day of the experiment the cells were treated with ZnCl2 (400 μM) either alone or in combination with different concentration of SKIP for 4 h. After 4 h the cell viability was analyzed by MTS assay. […] All values are from one experiment performed in hexplicate.
Rat pheochromocytoma cell (PC12, ATCC, Bethesda, Md., USA) were grown in 10-cm tissue culture dishes (Corning). The base medium for this cell line was RPMI-1640 Medium (Invitrogen) supplemented with 10% heat-inactivated horse serum, 5% fetal bovine serum and solution containing 100 U/ml penicillin together with […] streptomycin (Biological Industries, Beit Haemek, Israel). The cells were incubated in 95% air; 5% CO2 in a humidified incubator at 37° C. The medium was changed every 2 to 3 days. The cells were subcultured when cell density reached 4×10^6 cells/ml. The cells were split in a ratio of 1:4.
On the day before the experiment cells were to be harvested, re-suspended and seeded on tissue culture dishes. For cell viability measurements, cells were seeded on Poly-D-Lysine coated 96-well tissue culture dishes (Sigma-Aldrich) at a concentration of 3×10^4 cells/well.
The cell viability is measured by colorimetric method that determines the number of viable cells in culture. This method is based on the bio-reduction of the tetrazolium compound [3-(4,5-dimethylthiazol-2-yl)-5-(3-carboxymethoxyphenyl)-2-(4-sulfophenyl)-2H-tetrazolium; MTS] by living cells into a colored formazan product. This reaction is occurring in the presence of an electron coupling reagent (phenazine ethosulfate; PES). The amount of formazan product is measured by ELISA plate reader at 490 nm and is directly proportional to the number of living cells in culture (CellTiter 96® AQueous One Solution Cell Proliferation Assay; Promega, Madison, Wis., USA).

[5] = system: PC12 cells; conditions: previously published data, read-out: EC50 for zinc cell killing effect; cited from earlier work

SMILES	interaction with drebrin (affinity column eluate, mass spectrometry) [1]	protection against cell death induced by zinc toxicity (MTS survival) ([2]; 400 μM zinc, 4 hrs, peptide 10^−9M)	protection against cell death induced by zinc toxicity (MTS) ([2]; 400 μM zinc, 4 hrs, peptide 10^−15M)	protection against zinc-induced PC12 cell death (MTS) with EB3 silenced ([2]; 500 microM zinc, NAP 10^−15M)	protection against zinc-induced PC12 cell death (MTS) with EB3 silenced ([2]; 500 microM zinc, NAP 10^−15M, listed as NAPVSIPQ)	protection against zinc-induced PC12 cell death (MTS) ([2]; 500 microM zinc, NAP 10^−15M, control situations (non-specific siRNA, no treatment))	effect on PSD-95 expression with EB3 silencing ([3]; 10^−12M NAP, 48 hours siRNA against EB3)	increase in PSD-95 expression ([3]; 10^−12M, 2 hrs, 13 DIV cortical neurons (FIG. 10d)) [%]	PSD-95 expression in dendrites (FIG. 11) ([3]; 10^−12M, DIV 13, 2 hours)	density of PSD-95 puncta vs vehicle controls ([3]; NAP 10^−18M-10^−9M, DIV 13, 2 hrs)	peak effect on density of PSD-95 over control ([3]; NAP concentration of 10-12M, 2 hours) [%]	derivative peptides effect on PSD-95 density vs vehicle controls (FIG. 10c) ([3]; neurons treated for 2 hrs)	zinc concentration at which significant cell death was observed ([2]; PC12 cells, 4 hrs, data not shown) [µM]	reduction of cell viability by zinc ([2]; vs control without zinc) [%]	cell death from zinc treatment [4] [%]	EC50 [5] [µM]
CC[C@H](C)[C@H](NC(=O)[C@H](CO)NC(=O)[C@@H](NC(=O)[C@@H]1CCCN1C(=O)[C@H](C)NC(=O)[C@@H](N)CC(N)=O)C(C)C)C(=O)N1CCC[C@H]1C(=O)N[C@@H](CCC(N)=O)C(=O)O [NAP]	specific interaction	significant protection effect; also recorded: significantly increased survival	significant protection effect	not in the presence of EB3 silencing	does not protect	protected against by NAP treatment; also recorded: protects in the control situations	abolished NAP activity; also recorded: completely inhibited	75	enhances PSD-95 expression	significantly increased	50	significantly increased				
[Cl-].[Cl-].[Zn+2] [zinc, ZnCl2]													> 200	~25	~20	308 ± 38
